Experimental data as given in patent US12661362B2, “Methods for the prevention and treatment of hearing loss” (Ting Therapeutics LLC, priority 2020, dated 2026).

Legend:
[1] = chemotherapy; cited from earlier work
FVB/NJ mice = test: Safety monitoring of drugs IP in FVB/NJ mice, with or without Cisplatin; type: in vivo, mouse; conditions: for weight loss, pain and distress: Niclosamide 10, Ingenol 0.3, Elesclomol 5 mg/kg/day IP, 4 consecutive days
Method: To investigate the drugs' effects on mammalian auditory function in vivo, we first treated 5-7 weeks old FVB/NJ mice with […] drug candidates: Niclosamide (10 mg/kg/day), Ingenol (0.3 mg/kg/day), Elesclomol (5 mg/kg/day), for 4 consecutive days (IP) to monitor safety of the drugs. All tested doses were determined based on previous published data showing maximum non-toxic dose through intraperitoneal (IP) injection.
Baseline auditory brainstem response (ABR) were measured on 16 mice divided in 3 groups receiving Ingenol, Elesclomol, and Niclosamide. The mice received the drug doses described above, then on day 2 of drug injection mice also received 30 mg/kg Cisplatin (IP; 4 mice per group).

HEI-OC1 cells = test: Caspase-Glo 3/7 assay in HEI-OC1 cells treated with Cisplatin; type: cell-based, mouse; conditions: Cisplatin 50 μM; for caspase activity: at a dosage of ~40 μM
Method: Now referring to FIG. 3A, and FIGS. 3D-3E, compounds protect from cisplatin toxicity in the mouse inner ear cell line. House Ear Institute-Organ of Corti 1 (HEI-OC1) cells (House Research Institute) were maintained in high-glucose Dulbecco's modified Eagle medium supplemented with 10% fetal bovine serum (Life Technologies, USA) at 33° C. and 10% CO2 as previously described (Kalinec et al., 2003). Cells were seeded at 8,000 cells/well in 96 well plates and left to attach overnight. Now referring to FIG. 3A, For the drug screening, HEI-OC1 cells were pretreated with 30 drug candidates at concentrations ranging from 2 nM to 40 μM one hour before receiving cisplatin. The cisplatin dose (50 μM) was based on our previously published dose response curve. The cells were co-incubated with cisplatin and drug candidates for an additional 19 hours prior to Caspase-Glo 3/7 assay (Promega, Madison, WI) as previously shown. Additionally, […] kenpaullone-treated cells were used as positive controls to validate our results. The DMSO concentration in drug preparation was adjusted to 0.1% v/v and it was verified that 0.5% DMSO had no effect on the cell death kinetics (Hall et al., 2014). Results of the assay were run in triplicate and normalized to cisplatin-only and media-only controls. The percent caspase activity was used to determine the relative protective effect of each compound. The luminescence detection representing caspase activity in each well was obtained using a Cytation Hybrid Multi-Mode Reader (Biotek, Winooski, VT, USA). The percent protection of the cells was calculated using caspase 3/7 readouts and the following formula: […]
In the following examples, Niclosamide, 5-chloro-N-(2-chloro-4-nitrophenyl)-2-hydroxy-benzamide, with a ≥95% purity was used for all experiments (Cayman Chemical, USA).

zebrafish neuromast HCs [2] = test: Niclosamide/ezetimibe combination hair cell protection in Cisplatin-treated zebrafish (Loewe synergy); type: in vivo; conditions: 1.48 μM, cisplatin 300 μM
Method: Now referring to FIGS. 6A-6B, 5 dpf zebrafish were either incubated with vehicle (DMSO), cisplatin alone at 300 μM concentration, cisplatin and ezetimibe (0.002 μM to 13.3 μM), cisplatin and niclosamide (0.02 nM to 18.3 nM), or cisplatin and combination ezetimibe/niclosamide. After 6 hours, animals were transferred to fresh water for 1 hour and then sacrificed and processed for immunohistochemistry and HC count as described above. To further elucidate whether Niclosamide, synergizes with Nrf2 activators to protect zebrafish HCs from Cisplatin damage, we tested the extent of HC damage in presence of Niclosamide and a Nrf2 activator, ezetimibe.
A three-dimensional contour plot (A) showing dose response of neuromast hair cell protection in zebrafish treated with varying concentrations of niclosamide and ezetimibe mapped to synergy distribution. […] Other dose combinations showing synergy are shown in dark blue boxes. Dose combinations with scores of 0 and 1 show additive effect. *P<5×10−2; **P<10−3, ***P<10−4 versus control fish, One-sample t-test run by the Combenefit software44. Data is shown as mean±standard deviation.
Zebrafish were treated with combinations of Niclosamide (ranging from 0.02-18.3 nM) and EZ (ranging from 0.0183-13.3 μM).

zebrafish neuromast HCs [3] = test: Zebrafish lateral-line neuromast hair cell protection against Cisplatin; type: in vivo, Danio rerio; conditions: doses of 0.002, 0.0183, 0.165 and 1.48 μM; Cisplatin 4 hours
Method: Danio rerio experimental larvae were obtained by pair mating of adult fish maintained at Creighton University by standard methods approved by the Institutional Animal Care and Use Committee. […] We used Tg(pou4f3:mGFP) expressing a membrane bound GFP in HCs. Experimental fish were maintained at 28.5° C. in E3 media (5 mM NaCl, 0.17 mM KCl, 0.33 mM CaCl2) and […], pH 7.2). Animals were cryoanaesthetized after drug treatment and prior to fixation. The neuromasts inspected, S03 and 01-2, were part of the cranial system and included the otic, middle, and opercular neuromasts.
Subsequently, animals were transferred to E3 water for 5 hours and fixed in 4% paraformaldehyde (PFA) overnight (26). Neuromast HCs were immunolabeled with anti-otoferlin (HCS-1, DSHB) and anti-GFP (NB100-1614, Novus Biologicals). These two markers were used to detect and count neuromast HCs to reduce the chances of missing some of the HCs after the treatment since we previously noticed that incubation with the compounds can affect GFP expression more difficult to detect under a fluorescence microscope. Otic, middle, and opercular neuromasts were identified, and HCs at S03 (supraorbital line neuromast) and 01-2 (Otic line neuromasts) were manually counted using a Zeiss AxioSkop 2 fluorescence microscope with a 40× oil objective. Compounds were then evaluated on efficiency and potency, with the top-rated compounds showing high protection at lower concentrations.

N.N.[Cl][Pt][Cl] [Cisplatin]
treated cancer patients with permanent hearing loss [1]: 40-60% | weight loss (FVB/NJ mice; Cisplatin alone, 30 mg/kg IP): 10-15%

CN(NC(=O)CC(=O)NN(C)C(=S)c1ccccc1)C(=S)c1ccccc1 [Elesclomol]
caspase activity (HEI-OC1 cells): 20% | caspase-3/7 activity relative to control cells (HEI-OC1 cells; dose of 40 μM): reduce caspase activity to comparable levels as control cells | weight loss, pain and distress (FVB/NJ mice): None of the mice showed reduced weight loss or signs of pain and distress

O=C1[C@H](CC[C@H](O)c2ccc(F)cc2)[C@@H](c2ccc(O)cc2)N1c1ccc(F)cc1 [Ezetimibe]
HC per neuromast counts, compound alone (zebrafish neuromast HCs [2]): higher HC per neuromast counts

CC1=C[C@]23C(=O)[C@@H](C=C(CO)[C@@H](O)[C@]2(O)[C@H]1O)[C@H]1[C@@H](C[C@H]3C)C1(C)C [Ingenol]
IC50 (HEI-OC1 cells; Mus musculus, HEI-OC1, HEI-OC1 cells, read-out: calculated IC50 (percent protection from caspase 3/7 readout)): 1540 nM | caspase activity (HEI-OC1 cells): 30% | weight loss, pain and distress (FVB/NJ mice): None of the mice showed reduced weight loss or signs of pain and distress | protection against CIHL in zebrafish (zebrafish neuromast HCs [3]): showed protection against CIHL
